As usually defined, the IC50 is the concentration that inhibits the measured activity by half. The EC50 is the concentration that produces a half-maximal response. Usually Ki stands for a dissociation constant, usually derived from enzyme kinetics or from competition with a known ligand. For orientation: clearance means the volume of plasma or blood freed of the substance per unit of time. As usually defined, the AUC is the area under the concentration-time curve, a measure of exposure. Usually half-life stands for the time needed for the level to fall by half in the phase considered. As usually defined, the logP is the decadic logarithm of the partition coefficient of the neutral form, usually between octanol and water. What is called logD is the decadic logarithm of the distribution of all forms, ionised or not, between an organic phase and buffer at a given pH. For orientation: CC50 means the concentration giving 50% cytotoxicity. Usually Papp stands for a coefficient for how fast a substance crosses the barrier.

Data set [1] addresses T1, Human immunodeficiency virus type 1 protease (Human immunodeficiency virus 1, UniProt Q72874). Description: Inhibition of recombinant HIV1 Protease using His-Lys-Ala-Arg-Val-Leu-(pNO2-Phe)-Glu-Ala-Nle-SerNH2 peptide as substrate.
Data set [2] has as its target T1, Human immunodeficiency virus type 1 protease. Description: Inhibition of recombinant wildtype HIV1 Protease using Abz-Thr-Ile-Nle-Phe(NO2)-Gln-Arg peptide as substrate.
Data set [3] has as its system Human immunodeficiency virus 1. Description: Antiviral activity against wild type HIV-1 IIIB infected in human MT4 cells assessed as protection against virus-induced cytotoxicity incubated for 5 days by XTT assay. The data set is classed as functional, organism-based. To be noted: Human immunodeficiency virus 1, IIIB, MT4, 120 h.
Data set [4] addresses T1, Human immunodeficiency virus type 1 protease. Description: Binding affinity to wild-type HIV1 protease expressed in Escherichia coli BL21(DE3) assessed as inhibition constant using (2-aminobenzoyl)Thr-Ile-Nle-(p-nitro)Phe-Gln-Arg peptide as substrate preincubated for 15 mins followed by substrate addition by fluorimeter analysis.
Data set [5] is described as follows: Clearance in rat at 2 mg/kg, iv. The data set is classed as ADME, organism-based. To be noted: in vivo.
The nature of data set [6]: Clearance in dog at 1 mg/kg, iv. As to conditions: in vivo. The data set is classed as ADME, organism-based, Canis lupus familiaris.
Data set [7] is described as follows: AUC in rat at 10 mg/kg, po. Further details: dose 10 mg/kg, route po. As to conditions: in vivo. The data set is classed as ADME, organism-based.
Data set [8] in a line: Half life in dog at 1 mg/kg, iv. The data set is classed as ADME, organism-based, Canis lupus familiaris. To be noted: in vivo.
The nature of data set [9]: Half life in rat at 1 mg/kg, iv. The data set is classed as ADME, organism-based. As to conditions: in vivo.
A short description of data set [10]: AUC in dog at 4 mg/kg, po. The class given is ADME, organism-based, Canis lupus familiaris. On the set-up: dose 4 mg/kg, route po. As to conditions: in vivo.
The test system of data set [11] is Human immunodeficiency virus 1. Description: Antiviral activity against HIV1 LAI infected in human MT2 cells assessed as inhibition of virus-induced cytopathic effect. The data set is classed as functional, organism-based. As to conditions: Human immunodeficiency virus 1, LAI. (In general: Protection from cytopathic effect is a common read-out in antiviral testing.)

Data set [12] deals with T1, Human immunodeficiency virus type 1 protease. Description: Binding affinity to HIV1 protease assessed as inhibition constant.
In data set [13] the test system is Human immunodeficiency virus 1. Description: Ratio of EC50 for antiviral activity against HIV1-JSL to EC50 for antiviral activity against wild type HIV1 ERS104pre. The class given is functional.
Data set [14] deals with Human immunodeficiency virus 1. Description: Antiviral activity against multidrug-resistant HIV1-JSL infected in phytohemagglutinin-activated human PBMC cells assessed as inhibition of virus-induced cytopathic effect measured after 7 days by MTT assay. The class given is functional, organism-based. As to conditions: Human immunodeficiency virus 1, JSL, 168 h.
The subject of data set [15] is Human immunodeficiency virus 1. Description: Ratio of EC50 for antiviral activity against HIV1-G to EC50 for antiviral activity against wild type HIV1 ERS104pre. The class given is functional.
Data set [16] is described as follows: Lipophilicity, logP of the compound in Octanol/water by shake-flask method. The class given is physicochemical.
In data set [17] the test system is Human immunodeficiency virus 1. Description: Antiviral activity against wild type HIV1 ERS104pre infected in human PBMC cells assessed as inhibition of virus-induced cytopathic effect measured after 7 days by MTT assay. As to conditions: Human immunodeficiency virus 1, ERS104pre, 168 h. The data set is classed as functional, organism-based.
The nature of data set [18]: Selectivity index, ratio of CC50 for human MT2 cells to IC50 for antiviral activity against HIV1 LAI. The class given is toxicity. To be noted: read-out: Ratio CC50/EC50.
The test system of data set [19] is Human immunodeficiency virus 1. Description: Antiviral activity against multidrug-resistant HIV1-C infected in phytohemagglutinin-activated human PBMC cells assessed as inhibition of virus-induced cytopathic effect measured after 7 days by MTT assay. The data set is classed as functional, organism-based. To be noted: Human immunodeficiency virus 1, C, 168 h.
For data set [20], the system named is Human immunodeficiency virus 1. Description: Ratio of EC50 for antiviral activity against HIV1-B to EC50 for antiviral activity against wild type HIV1 ERS104pre. The class given is functional.
For data set [21], the system named is Human immunodeficiency virus 1. Description: Ratio of EC50 for antiviral activity against HIV1-C to EC50 for antiviral activity against wild type HIV1 ERS104pre. The data set is classed as functional.
Data set [22] concerns Human immunodeficiency virus 1. Description: Antiviral activity against multidrug-resistant HIV1-G infected in phytohemagglutinin-activated human PBMC cells assessed as inhibition of virus-induced cytopathic effect measured after 7 days by MTT assay. The data set is classed as functional, organism-based. To be noted: Human immunodeficiency virus 1, G, 168 h.
Data set [23] can be described thus: Lipophilicity, logD of the compound in Octanol/buffer by shake-flask method. The class given is physicochemical.
In data set [24] the test system is Human immunodeficiency virus 1. Description: Antiviral activity against multidrug-resistant HIV1-TM infected in phytohemagglutinin-activated human PBMC cells assessed as inhibition of virus-induced cytopathic effect measured after 7 days by MTT assay. The data set is classed as functional, organism-based. As to conditions: Human immunodeficiency virus 1, TM, 168 h.

The test system of data set [25] is Human immunodeficiency virus 1. Description: Ratio of EC50 for antiviral activity against HIV1-MM to EC50 for antiviral activity against wild type HIV1 ERS104pre. The class given is functional.
A short description of data set [26]: Cytotoxicity against human MT2 cells assessed as reduction in cell viability by MTT assay. The data set is classed as toxicity, cell-based. (Formazan colour is commonly taken as a measure of viable cells.)
A short description of data set [27]: Apparent permeability in rat astrocytes/rat pericytes/monkey endothelial cells triple cell co-culture system incubated for 30 mins by spectrophotometric analysis. The class given is ADME, cell-based.
Data set [28] deals with Human immunodeficiency virus 1. Description: Antiviral activity against multidrug-resistant HIV1-B infected in phytohemagglutinin-activated human PBMC cells assessed as inhibition of virus-induced cytopathic effect measured after 7 days by MTT assay. To be noted: Human immunodeficiency virus 1, B, 168 h. The class given is functional, organism-based.
The test system of data set [29] is Human immunodeficiency virus 1. Description: Antiviral activity against multidrug-resistant HIV1-MM infected in phytohemagglutinin-activated human PBMC cells assessed as inhibition of virus-induced cytopathic effect measured after 7 days by MTT assay. The data set is classed as functional, organism-based. As to conditions: Human immunodeficiency virus 1, MM, 168 h.

In data set [30] the test system is Human immunodeficiency virus 1. Description: Ratio of EC50 for antiviral activity against HIV1-TM to EC50 for antiviral activity against wild type HIV1 ERS104pre. The class given is functional.
Data set [31] concerns Human immunodeficiency virus 1. Description: Antiviral activity against HIV1 LAI infected in human MT2 cells assessed as inhibition of virus-induced cytopathic effect by MTT assay. The data set is classed as functional, organism-based. To be noted: Human immunodeficiency virus 1, LAI.
The target in data set [32] is T1, Human immunodeficiency virus type 1 protease. Description: Inhibition of recombinant HIV1 Protease using Abz-Thr-Ile-Nle-(p-nitro)-Phe-Gln-Arg-NH2 peptide as substrate.

Molecules are shown by their SMILES.

For `C=C(C)[C@@H]1CC[C@@]2(C)[C@@H]1C1CC[C@@H]3[C@@](C)(CC(=O)O)[C@H](C(C)(C)C(=O)O)CC[C@@]3(C)[C@]1(C)C[C@@H]2O` (some centres not stated), in data set [1], the IC50 is 17800 nM.
Take `Cc1c(O)cccc1C(=O)N[C@@H](c1cccs1)[C@H](O)CN1C[C@H]2CCCC[C@H]2C[C@H]1C(=O)NC(C)(C)C`: in data set [2], the 50% inhibitory concentration (IC50) turned out to be 30000 nM.
For the compound `CCOP(=O)(COc1ccc(C[C@H](NC(=O)O[C@H]2CO[C@H]3OCC[C@H]32)[C@H](O)CN(CC(C)C)S(=O)(=O)c2ccc(OC)cc2)cc1)OCC`, the EC50 in data set [3] worked out at 3.5 nM. In [4], the Ki was determined as 0.0081 nM.
For the compound `CCCN([C@H](CO)CCC[C@H](C)NC(=O)[C@@H](NC(=O)OC)C(c1ccccc1)c1ccccc1)S(=O)(=O)c1ccc(N)cc1`, the figures for the clearance in data set [5] and in data set [6] were 30 mL/min/kg and 5.3 mL/min/kg, respectively. The results for the exposure (AUC) in data set [7] and in [10] were 1.35 µM·h and 2.48 µM·h, respectively. The half-life in data set [8] was 9.1 h; in data set [9], 12.4 h.
Regarding `COc1ccc(S(=O)(=O)N(CC(C)C)C[C@@H](O)[C@H](Cc2ccccc2)NC(=O)O[C@@H]2C[C@@H]3OCO[C@@H]3C2)cc1`, the IC50 in [11] was found to be 3.8 nM. For the same compound, the Ki in [12] was 0.11 nM.
For `C=C(C)[C@H]1CC[C@]2(C)[C@H]3CC[C@@H]4[C@@]5(C)C[C@H](OC(C)=O)C[C@](C)(C(=O)O)[C@@H]5CC[C@@]4(C)[C@]3(C)CC[C@@H]12`, in [1], the IC50 came out at 1700 nM.
For the compound `CCCN([C@H](CO)CCC[C@@H](NC(=O)[C@@H](NC(=O)OC)C(c1ccccc1)c1ccccc1)C(F)(F)F)S(=O)(=O)c1ccc(N)cc1`, the clearance was 17.4 mL/min/kg in [5] and 4.7 mL/min/kg in data set [6]. Moreover, the area under the curve (AUC) in [7] worked out at 0.56 µM·h; in [10], 3.62 µM·h. In addition, the figures for the half-life in data set [8] and in data set [9] were 5.2 h and 3.38 h, respectively.
As to `COc1ccc(S(=O)(=O)N(CC(C)C)C[C@@H](O)[C@H](Cc2ccc(OCP(=O)(O)O)cc2)NC(=O)O[C@H]2CO[C@H]3OCC[C@H]32)cc1`, in [4], the Ki worked out at 0.0133 nM.
In the case of `CC(C)(C)NC(=O)[C@@H]1C[C@@H]2CCCC[C@@H]2CN1C[C@@H](O)[C@@H](NC(=O)[C@H](CC(N)=O)NC(=O)c1ccc2ccccc2n1)c1cccs1`, in data set [2], the IC50 was 5000 nM.
As to `CC(C)CN(C[C@@H](O)[C@H](Cc1ccccc1)NC(=O)O[C@H]1CO[C@H]2OCC(F)(F)[C@H]21)S(=O)(=O)c1ccc(N)cc1`, the “Ratio EC50” value in [13] came to 7; in data set [15] it was 2; in data set [20], 3; in data set [21] it was 1; in data set [25], 1; in data set [30], 2. The EC50 in data set [14] was 20 nM; in data set [17], 2.7 nM; in data set [19] it was 2 nM; in [22] it was 4 nM; in data set [24] it was 4 nM; in [28] it was 11 nM. For the same compound, the EC50 in data set [29] and in data set [31] was 3 nM each time. Also, in data set [16], the log partition coefficient (logP) is -0.83. For the same compound, the selectivity ratio in data set [18] was 12300. Moreover, in data set [12], the inhibition constant (Ki) came out at 0.0058 nM. Also, in data set [23], the pH-dependent lipophilicity (logD) is -1.01. The cytotoxic concentration (CC50) in [26] worked out at 37000 nM. For the same compound, the Papp at 0.5 h in data set [27] was found to be 47.8 ×10⁻⁶ cm/s.
On to `COc1ccc(S(=O)(=O)N(CC(C)C)C[C@@H](O)[C@H](Cc2ccccc2)NC(=O)O[C@H]2CO[C@H]3OCC(F)(F)[C@H]32)cc1`, for which the “Ratio EC50” value in data set [13] turned out to be 10; in [15], 2; in data set [20], 7; in data set [21] it was 1; in [25] it was 1; in [30] it was 2. Moreover, the 50% effective concentration (EC50) is 21 nM in data set [14]; 2.3 nM in data set [17]; 2 nM in [19]; 4 nM in [22]; 4 nM in data set [24]; 14 nM in [28]. The EC50 in data set [29] turned out to be 2 nM; in data set [31] it was 0.8 nM. The compound also displayed a logP in data set [16] of -0.14. In data set [18], the selectivity ratio came to 21900. Moreover, in data set [12], the inhibition constant Ki was found to be 0.8 nM. Further, the log distribution coefficient (logD) in data set [23] is -0.29. Besides, the CC50 in [26] was 17500 nM. Further, the Papp at 0.5 h in [27] stood at 61.8 ×10⁻⁶ cm/s.
Turning to `Cc1cccc(C)c1OCC(=O)N(Cc1ccccc1)C[C@@H]1CNC[C@H]1CN(CC(C)C)S(=O)(=O)c1ccccc1`, the IC50 in [32] was found to be 2200 nM.

These data come from ChEMBL document CHEMBL5252512, “Recent Progress in the Development of HIV-1 Protease Inhibitors for the Treatment of HIV/AIDS” (J Med Chem, 2016).
